# Experimental data published in patent publication US20120220562A1, “Anti-Viral Compounds” (ABBOTT LABAORATORIES, priority 2011, published 2012).
# Tested on: HCV 1b-Con1 replicon
# Assay: HCV 1b-Con1 replicon assay in the presence of 5% FBS
# Assay type: cell-based
# Conditions: Hepatitis C virus
row,Structure (SMILES),EC50
1,"COC(=O)N[C@H](C(=O)N1CCC[C@H]1c1nc2cc([C@H]3CC[C@H](c4ccc5[nH]c([C@@H]6CCCN6C(=O)[C@@H](NC(=O)OC)C(C)C)nc5c4)N3c3cc(F)c(N4CCN(c5ccc(C(F)(F)F)cc5)CC4)c(F)c3)ccc2[nH]1)C(C)C [Example 2.17, methyl {(2S)-1-[(2S)-2-{5-[(2R,5R)-1-(3,5-difluoro-4-{4-[4-(trifluoromethyl)phenyl]piperazin-1-yl}phenyl)-5-{2-[(2S)-1-(2S)-2-[(methoxycarbonyl)amino]-3-methylbutanoylpyrrolidin-2-yl]-1H-benzimidazol-5-yl}pyrrolidin-2-yl]-1H-benzimidazol-2-yl}pyrrolidin-1-yl]-3-methyl-1-oxobutan-2-yl}carbamate]",< 0.1 nM
2,"COC(=O)N[C@H](C(=O)N1CCC[C@H]1c1nc2ccc([C@H]3CC[C@H](c4ccc5nc([C@@H]6CCCN6C(=O)[C@@H](NC(=O)OC)C(C)C)[nH]c5c4)N3c3cc(F)c(N4CC(C)CC(C)C4)c(F)c3)cc2[nH]1)C(C)C (stereo partly drawn) [Example 5.7, methyl {(2S)-1-[(2S)-2-{6-[(2R,5R)-1-[4-(3,5-dimethylpiperidin-1-yl)-3,5-difluorophenyl]-5-{2-[(2S)-1-{(2S)-2-[(methoxycarbonyl)amino]-3-methylbutanoyl}pyrrolidin-2-yl]-1H-benzimidazol-6-yl}pyrrolidin-2-yl]-1H-benzimidazol-2-yl}pyrrolidin-1-yl]-3-methyl-1-oxobutan-2-yl}carbamate]",< 0.1 nM
3,"COC(=O)N[C@H](C(=O)N1CCC[C@H]1c1nc2cc([C@H]3CC[C@H](c4cc5nc([C@@H]6CCCN6C(=O)[C@@H](NC(=O)OC)C(C)C)[nH]c5cc4F)N3c3cc(F)c(N4CCC(F)(c5ccccc5)CC4)c(F)c3)c(F)cc2[nH]1)C(C)C [Example 4.62, methyl {(2S)-1-[(2S)-2-{5-[(2R,5R)-1-[3,5-difluoro-4-(4-fluoro-4-phenylpiperidin-1-yl)phenyl]-5-{6-fluoro-2-[(2S)-1-{(2S)-2-[(methoxycarbonyl)amino]-3-methylbutanoyl}pyrrolidin-2-yl]-1H-benzimidazol-5-yl}pyrrolidin-2-yl]-6-fluoro-1H-benzimidazol-2-yl}pyrrolidin-1-yl]-3-methyl-1-oxobutan-2-yl}carbamate]",< 0.1 nM
4,"COC(=O)N[C@H](C(=O)N1CCC[C@H]1c1nc2cc([C@H]3CC[C@H](c4ccc5[nH]c([C@@H]6CCCN6C(=O)[C@@H](NC(=O)OC)C(C)C)nc5c4)N3c3cc(F)c(N4CCC(C)(C)CC4)c(F)c3)ccc2[nH]1)C(C)C [Example 5.10, methyl {(2S)-1-[(2S)-2-{5-[(2R,5R)-1-[4-(4,4-dimethylpiperidin-1-yl)-3,5-difluorophenyl]-5-{2-[(2S)-1-{(2S)-2-[(methoxycarbonyl)amino]-3-methylbutanoyl}pyrrolidin-2-yl]-1H-benzimidazol-5-yl}pyrrolidin-2-yl]-1H-benzimidazol-2-yl}pyrrolidin-1-yl]-3-methyl-1-oxobutan-2-yl}carbamate]",< 0.1 nM
5,"COC(=O)N[C@H](C(=O)N1C[C@@H](F)C[C@H]1c1nc2cc([C@H]3CC[C@H](c4ccc5[nH]c([C@@H]6C[C@H](F)CN6C(=O)[C@@H](NC(=O)OC)C(C)C)nc5c4)N3c3ccc(F)cc3)ccc2[nH]1)C(C)C [Example 3.9, methyl {(2S)-1-[(2S,4S)-4-fluoro-2-{5-[(2R,5R)-5-{2-[(2S,4S)-4-fluoro-1-{(2S)-2-[(methoxycarbonyl)amino]-3-methylbutanoyl}pyrrolidin-2-yl]-1H-benzimidazol-5-yl}-1-(4-fluorophenyl)pyrrolidin-2-yl]-1H-benzimidazol-2-yl}pyrrolidin-1-yl]-3-methyl-1-oxobutan-2-yl}carbamate]",0.1 to 1 nM
